Reference: US5869482A, “Dipyridio[2,3-b:3',2'-] azepines and their use in the prevention or treatment of HIV infection” (priority 1997, dated 1999)

Assays:
HIV-1 RT (Y181C) mutant = target: T1, HIV-1 RT (Y181C) mutant (Human immunodeficiency virus type 1 (BRU ISOLATE), UniProt P03367, Y780C); assay: biochemical; set-up: species or system Human Immunodeficiency Virus (HIV-1); details: 1 μM compound; RNA-dependent DNA polymerase activity; read-out: RT (Y181C) % inh. (1 μM)
T1 construct: Y181C by site-directed mutagenesis

HIV-1 RT (L100I) mutant = target: T2, HIV-1 RT (L100I) mutant (Human immunodeficiency virus type 1 (BRU ISOLATE), UniProt P03367, L699I); format: biochemical, Human Immunodeficiency Virus (HIV-1); details: 1 μM compound; RNA-dependent DNA polymerase activity
T2 construct: L100I mutant

[1] = target: HIV-1 reverse transcriptase, wild type (WT) (Human immunodeficiency virus type 1 (BRU ISOLATE), UniProt P03367); assay: Reverse Transcriptase (RT) assay, wild type enzyme; format: biochemical, Human Immunodeficiency Virus (HIV-1), LAV strain; details: 1 μM compound; RNA-dependent DNA polymerase activity; read-out: RT (WT) % inh. (1 μM)
Excerpt: Utilizing the Reverse Transcriptase (RT) Assay described below, compounds can be tested for their ability to inhibit the RNA-dependent DNA polymerase activity of HIV-1 RT.
Among the enzymes for which Human Immunodeficiency Virus (HIV-1) encodes is a reverse transcriptase (1), so-named because it transcribes a DNA copy from an RNA template. This activity can be quantitatively measured in a cell-free enzyme assay, which has been previously described (2), and is based upon the observation that reverse transcriptase is able to use a synthetic template [poly r(C) primed with oligo d(G)] to transcribe a radio-labelled, acid-precipitable DNA strand utilizing ^3 H-dGTP as a substrate. The assay described below utilizes the wild type (WT) enzyme, which is the predominant form of the enzyme observed in patients infected with HIV-1.
Reverse transcriptase enzyme from the LAV strain of Human Immunodeficiency Virus (HIV-1) (1) was isolated from the bacterial strain JM109 (3) expressing the DNA clone pBRTprtl+ (2) which is under the control of the lac promotor in the expression vector pIBI21 (4). […] At that time the repressor inhibitor IPTG (isopropyl β-D-thiogalactopyranoside) is added to 0.5 mM, and the mixture is incubated for 2 additional hours. […] The cells are lysed by the addition of 0.2% NP-40 and brought to 1M NaCl. […]

HIV-1 RT (K103N) mutant = target: T3, HIV-1 RT (K103N) mutant (Human immunodeficiency virus type 1 group M subtype B, UniProt P03367, K702N); assay: biochemical; set-up: species or system Human Immunodeficiency Virus (HIV-1); details: 1 μM compound; RNA-dependent DNA polymerase activity; read-out: RT (K103N) % inh. (1 μM)
T3 construct: Reverse transcriptase enzyme from the LAV strain; made in house; host or cells: E. coli JM109 with clone pBRTprtl+ in vector pIBI21 (stated for the wild-type enzyme; inferred for the K103N mutant)

HIV-1 RT (P236L) mutant = target: T4, HIV-1 RT (P236L) mutant (Human immunodeficiency virus type 1 (BRU ISOLATE), UniProt P03367, P835L); format: biochemical, Human Immunodeficiency Virus (HIV-1); details: 1 μM compound; RNA-dependent DNA polymerase activity
T4 construct: P236L mutant

Row | SMILES | inhibition at 1 µM (HIV-1 RT (Y181C) mutant) [%] | RT (L100I) % inh. (1 μM) (HIV-1 RT (L100I) mutant) [%] | inhibition at 1 µM [1] [%] | inhibition at 1 µM (HIV-1 RT (K103N) mutant) [%] | RT (P236L) % inh. (1 μM) (HIV-1 RT (P236L) mutant) [%]
1 | CCN1c2ncccc2C=Cc2cccnc21 [Example 1, 11-Ethyl-dipyrido[2,3-b:3',2'-f]azepine] | 53 | 81 | 98 | 73 | 99
2 | C1=Cc2cccnc2N(C2CC2)c2ncccc21 [Example 2, 11-Cyclopropyl-dipyrido[2,3-b:3',2'-f]azepine] | 41 | 80 | 97 | 55 | 98
